Source: patent publication US12240812B2, “Compound for inhibiting PGE2/EP4 signaling transduction inhibiting, preparation method therefor, and medical uses thereof” (Keythera (Suzhou) Pharmaceuticals Co. Ltd., priority 2019, dated 2025)
Like-named read-outs stand apart in the source and are kept apart here.

Legend:
[1] = Clearance assay in liver cells; type: in vitro ADME; conditions: cryopreserved mouse liver cells (hepatocytes); mouse (ICR/CD-1, male) cryopreserved liver cells, 0-120 min
Experimental: • Liver cell type: mouse • Product catalog: M00505 • Species: ICR/CD-1 • Sex: male • Source: BioreoclmationIVT Procedures: • 1. Preparation of working solution • a. 10 mM stock solutions of test compound and positive control were prepared in an appropriate solvent (DMSO). • b. 198 μL of 50% acetonitrile/50% water and 2 μL of 10 mM solution were mixed in a separate conical tube to obtain 100 μM test compound and positive control. • 2. Preparation of liver cells • a. The incubation medium and liver cell thawing medium were placed in a 37° C. water bath, and heated for at least 15 minutes before use. • b. A vial of cryopreserved liver cells was transferred from the storage, ensuring that the vial was kept at a low temperature until the thawing process was conducted. The cells were thawed by placing the vial in a 37° C. water bath and gently shaking the vial for 2 minutes. After completion of the thawing, the vial was sprayed with 70% ethanol and transferred to a biological safety cabinet. • c. The liver cells were transferred to a 50 mL conical tube containing the thawing medium by a large-bore pipette tip. The 50 mL conical tube was placed in a centrifuge and centrifuged at 100 g for 10 minutes. After completion of the centrifugation, the thawing medium was sucked out, and the liver cells were resuspended in enough medium to produce 1.5×10^6 cells/mL. • 3. Procedures of stability assay • a. 198 μL of liver cells were pipetted into each well of a 96-well uncoated plate. The plate was placed in an incubator to warm up the liver cells for 10 minutes. • b. 2 μL of 100 μM test compound or positive control was pipetted into each well of the 96-well uncoated plate to start the reaction. The plate was placed into the incubator at the set time point. • c. The contents of the wells were transferred in 25 μL of aliquots at the time points of 0, 15, 30, 60, 90 and 120 minutes. The aliquot was mixed with 6 volumes (150 μL) of acetonitrile containing internal standard IS (100 nM alprazolam, 200 nM caffeine, and 100 nM tolbutamide) to stop the reaction. The sample was vortex-mixed for 5 minutes, and centrifuged at 3220 g for 45 minutes. An aliquot of 100 μL of supernatant was diluted with 100 μL of ultrapure water, and the mixture was used for LC/MS/MS analysis. All incubations were performed in duplicate. • d. Data analysis
All calculations were performed using Microsoft Excel. The peak area was determined by the extracted ion chromatogram. The in vitro half-life (t½) of the parent compound was determined by the regression analysis of the compound disappearance percentage versus time curve.
The in vitro half-life (t½) was determined by the slope value k: t½=0.693/k
The in vitro t½ (in minutes) was converted to in vitro intrinsic clearance (CLint, in μL/min/0.5×10^6 cells) by using the following equation (average of repeated determinations): […]

[2] = system: PGE2/EP4 signal transduction in MCF7 cells; experiment: Determination of MCF7 cAMP (PGE2-stimulated, HTRF); type: cell-based; conditions: Homo sapiens
Experimental: • a) MCF7 cells (ATCC, 6000 cells/well/40 μl) were inoculated into a 384-well cell culture plate containing a medium (DMEM containing 10% FBS and 1×PS), and incubated overnight at 37° C. and 5% CO2. • b) The medium was removed, 40 μl/well of serum-free medium was added, and the cells were incubated at 37° C. and 5% CO2 for 5 hours. • c) The medium was replaced with 18 μL/well of HBSS buffer (Hepes 20 mM, 0.1% BSA, 500 μM IBMX). • d) The compound in DMSO was diluted (1/5 dilution, 9+0 dose). • e) 2 μL of the compound in d) was added to 98 μL of HBSS buffer. • f) 1 μL/well of the diluted compound in e) was added to the cells, with a final starting concentration of 1 μM, and the cells were incubated at 37° C. for 1 hour. • g) The cells were stimulated with 1 μL/well of PGE2 (10 mM DMSO stock solution) (final concentration: 10 nM, and DMSO final concentration: 0.2%), and incubated at 37° C. for 30 minutes. • h) After the incubation, 10 μL/well of cAMP-d2 and 10 μL/well of anti-cAMP were added, RT 1 h. • i) HTRF signals (665 nm/615 nm) were read on Envision. Data Analysis: • High control: 1 μM E7046 • Low control: DMSO • Background: 30 μL/well of lysis buffer+10 μL/well of anti-cAMP • Analytical data: original date—background Inhibition %: 100−100×(high control−analytical data)/(high control−low control)

CT-26 colorectal tumor [3] = experiment: Inhibitory effect of compound 6 on CT-26 colorectal tumor in mouse; type: in vivo; conditions: for effect on the growth of CT-26 tumor: administered alone, different doses (compound 6: 10, 30 or 150 mg/kg p.o. once a day); for effect on the body weight of mouse: CT-26 colorectal cancer model, FIG. 2
Experimental: Efficacy study on allograft tumor: each 6-week-old female BALB/c mouse was subcutaneously inoculated with 1×10^6 CT26 cancer cells (National Experimental Cell Resource Sharing Service Platform, Resource Number 3111CCCC). When the tumor reached about 60 to 80 mm^3, the tumor-bearing mice were randomly grouped to the vehicle group or treatment group. Compound 6 was administered orally (p.o.) in a 0.5% MC suspension at a dose of 10, 30 or 150 mg/kg, once a day. The mice in the vehicle group were orally administered with distilled water every day, and the administration time was the same as that of the compound 6 group. The tumor volume and body weight were recorded 2 to 3 times a week.

EMT-6 breast tumor = experiment: Compound 6 and anti-PD-1 antibody alone or in combination on EMT-6 breast tumor in mouse; type: in vivo
Experimental: (§1) Efficacy study on allograft tumor: each 6-week-old female BALB/c mouse was subcutaneously inoculated with 5×10^5 EMT-6 cancer cells. When the tumor reached about 60 to 80 mm^3, the tumor-bearing mice were randomly grouped to the vehicle group or treatment group. When administered alone or in combination, compound 6 was administered orally (p.o.) in a 0.5% MC suspension at a dose of 30 mg/kg, once a day. When administered alone or in combination, anti-PD-1 antibody (Invivomab anti-mouse PD-1 (CD279), Abcam) was administered intraperitoneally at a dose of 20 mg/kg on the first administration, and at a dose of 10 mg/kg on the following administrations once every 5 days. The mice in the vehicle group and PD-1 antibody-administered alone group were orally administered with distilled water every day, and the administration time was the same as that of the compound 6 group. The tumor volume and body weight were recorded 2 to 3 times a week.

CT-26 colorectal tumor [4] = experiment: Compound 6 and anti-PD-1 antibody alone or in combination on CT-26 colorectal tumor in mouse; type: in vivo
Experimental: as §1, with “1×10^6 CT26” for “5×10^5 EMT-6”, “30 or 150” for “30”, “5 mg/kg,” for “20 mg/kg on the first administration, and at a dose of 10 mg/kg on the following administrations”, “4 days, for a total of 3 times (Q4D×3).” for “5 days.”

[5] = MCF7 cells, 10 nM PGE2 stimulation, cAMP HTRF, read-out: MCF7 cAMP IC50
[6] = BALB/c mice, CT26 allograft, FIG. 1

| Compound | hepatocyte CLint at 1 µM [1] [µL/min/1e6 cells] | IC50 [2, 5] [nM] | other results |
| --- | --- | --- | --- |
| O=C(NC1(C23CC(C(=O)O)(C2)C3)CC1)c1cccc2ccn(Cc3ccc(-c4ccccc4)cn3)c12 [Compound 2, 3-(1-(1-((5-Phenylpyridin-2-yl)methyl)-1H-indole-7-carboxamido)cyclopropyl)bicyclo[1.1.1]pentane-1-carboxylic acid] | 19 | 0.89 | – |
| O=C(NC1(C23CC(C(=O)O)(C2)C3)CC1)c1cccc2ccn(Cc3cc4cc(F)ccc4o3)c12 [Compound 21, 3-(1-(1-((5-Fluorobenzofuran-2-yl)methyl)-1H-indole-7-carboxamido)cyclopropyl)bicyclo[1.1.1]pentane-1-carboxylic acid] | 1.93 | 0.9 | – |
| O=C(NC1(C23CC(C(=O)O)(C2)C3)CC1)c1cc(Cl)cc2ccn(Cc3ccc(-c4ccccc4)cn3)c12 [Compound 7, 3-(1-(5-Chloro-1-((5-phenylpyridin-2-yl)methyl)-1H-indole-7-carboxamido)cyclopropyl)bicyclo[1.1.1]pentane-1-carboxylic acid] | 34 | 0.13 | – |
| O=C(O)c1ccc(C2(NC(=O)c3cccc4ccn(Cc5ccc(C(F)(F)F)cc5)c34)CC2)cc1 [MF-766, 4-(1-(1-(4-(trifluoromethyl)benzyl)-1H-indole-7-carboxamido)cyclopropyl)benzoic acid, reference compound] | 12.5 | – | IC50 ([2]; MCF7, read-out: MCF7 cAMP IC50): 1.3 nM |
| C[C@H](NC(=O)c1c(C(F)F)nn(C)c1Oc1cccc(C(F)(F)F)c1)c1ccc(C(=O)O)cc1 [Compound E7046, (S)-4-(1-(3-(difluoromethyl)-1-methyl-5-(3-(trifluoromethyl)phenoxy)-1H-pyrazole-4-carboxamido)ethyl)benzoic acid, reference compound] | 20.1 | – | effect on the growth of CT-26 tumor (CT-26 colorectal tumor [3]; [6]): significant inhibitory effect; effect on the body weight of mouse (CT-26 colorectal tumor [3]): no significant effect; IC50 ([2]; MCF7, read-out: MCF7 cAMP IC50): 11.2 nM |
| O=C(NC1(C23CCC(C(=O)O)(CC2)CC3)CC1)c1cccc2ccn(Cc3ccc(C(F)(F)F)cc3)c12 [Compound 9, 4-(1-(1-(4-(Trifluoromethyl)benzyl)-1H-indole-7-carboxamido)cyclopropyl)bicyclo[2.2.2]octane-1-carboxylic acid] | 20 | 1.1 | – |
| O=C(NC1(C23CC(C(=O)O)(C2)C3)CC1)c1cccc2ccn(Cc3ccc(C(F)(F)F)cc3)c12 [Compound 1, 3-(1-(1-(4-(Trifluoromethyl)benzyl)-1H-indole-7-carboxamido)cyclopropyl)bicyclo[1.1.1]pentane-1-carboxylic acid] | 7.1 | 2.4 | – |
| O=C(NC1(C23CC(C(=O)O)(C2)C3)CC1)c1cncc2ccn(Cc3cc4ccccc4o3)c12 [Compound 25, 3-(1-(1-(benzofuran-2-ylmethyl)-1H-pyrrolo[3,2-c]pyridine-7-carboxamido)cyclopropyl)bicyclo[1.1.1]pentane-1-carboxylic acid] | 1.35 | 1.5 | – |
| O=C(NC1(C23CC(C(=O)O)(C2)C3)CC1)c1cccc2ccn(Cc3cc4ccccc4o3)c12 [Compound 6, 3-(1-(1-(Benzofuran-2-ylmethyl)-1H-indole-7-carboxamido)cyclopropyl)bicyclo[1.1.1]pentane-1-carboxylic acid] | 2.9 | 1.1 | effect on the body weight of mouse (EMT-6 breast tumor; EMT-6 model, compound 6 alone or in combination with anti-PD-1 antibody, FIG. 6): no significant effect; effect on the EMT-6 breast tumor in mouse (EMT-6 breast tumor; compound 6 30 mg/kg p.o. once a day, alone or in combination with anti-PD-1 antibody (20 mg/kg first, then 10 mg/kg i.p. every 5 days), FIG. 5): good inhibitory effect; effect on the growth of CT-26 tumor (CT-26 colorectal tumor [3]; [6]): significant inhibitory effect; effect on CT-26 tumor growth compared with E7046 (CT-26 colorectal tumor [3]; BALB/c mice, CT26 allograft, at the same dose, FIG. 1): significantly better than E7046; effect on the body weight of mouse (CT-26 colorectal tumor [3]): no significant effect; effect on the body weight of mouse (CT-26 colorectal tumor [4]; CT-26 model, compound 6 alone or in combination with anti-PD-1 antibody, FIG. 4): no significant effect; effect on the growth of CT-26 tumor in mouse (CT-26 colorectal tumor [4]; compound 6 30 or 150 mg/kg p.o. once a day, alone or in combination with anti-PD-1 antibody 5 mg/kg i.p. Q4Dx3, FIG. 3): good inhibitory effect |
